Results: ChEMBL document CHEMBL5727878, “Triazole furan compounds as agonists of the APJ receptor” (2020)
Values joined by “and” are separate entries in the source; they are usually repeats but may differ in a detail not shown here. Identical values can stand only once.

Target: T1, Apelin receptor (Homo sapiens, UniProt P35414)
T1 sequence (P35414 whole entry): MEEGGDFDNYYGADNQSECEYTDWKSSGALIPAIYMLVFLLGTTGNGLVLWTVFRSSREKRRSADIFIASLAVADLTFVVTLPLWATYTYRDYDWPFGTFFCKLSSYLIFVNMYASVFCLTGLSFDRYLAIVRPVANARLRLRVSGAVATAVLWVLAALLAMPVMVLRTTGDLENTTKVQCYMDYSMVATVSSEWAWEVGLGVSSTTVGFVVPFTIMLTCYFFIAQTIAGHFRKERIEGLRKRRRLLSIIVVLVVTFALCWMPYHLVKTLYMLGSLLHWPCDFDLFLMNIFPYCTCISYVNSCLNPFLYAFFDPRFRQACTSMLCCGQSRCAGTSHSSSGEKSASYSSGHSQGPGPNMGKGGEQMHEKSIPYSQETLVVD
Test: GTPγS Binding: The human APJ receptor was cloned by polymerase chain reaction and the gene encoding the receptor was subcloned in pFLAG-CMV-3 expression vector (Sigma, Saint Louis, Mo. USA) in-house at Amgen. A GTPγS binding assay was performed on membranes prepared from CHO cells stably expressing human APJ receptor. The optimum experimental conditions for the concentrations of GDP, MgCl2, and NaCl in the assay buffer were initially determined. The assay was performed in assay buffer [20 mM HEPES, pH 7.5, 5 mM MgCl2, and 0.1% (w/v) BSA with 200 mM NaCl, 3 μM GDP] and membranes expressing human APJ receptor/well along with WGA PS beads. The reaction was initiated by addition of 0.2 nM [35S]GTPγS in the absence or presence of various ligands and incubated at RT for 90 min. Nonspecific binding was determined in the presence of 100 μM GTPγS and was always less than 0.2% of total binding.

| Structure (SMILES) | EC50 |
| --- | --- |
| COc1cccc(OC)c1-n1c(NS(=O)(=O)[C@@H](C)[C@@H](O)c2coc(C)n2)nnc1-c1ccc(C)o1 (single isomer, unassigned) | 8300 pM |
| COc1cccc(OC)c1-n1c(NS(=O)(=O)[C@@H](C)[C@H](O)c2cc3n(n2)CCCO3)nnc1-c1ccc(C)o1 (single isomer, unassigned) | 1200 pM |
| COc1cccc(OC)c1-n1c(NS(=O)(=O)[C@@H](C)Cc2ncc(Br)cn2)nnc1-c1ccco1 (single isomer, unassigned) | 310 pM |
| COc1cc[nH]c(=O)c1-n1c(NS(=O)(=O)[C@@H](C)[C@H](C)c2ncc(F)cn2)nnc1-c1ccc(C)o1 (single isomer, unassigned; form 2) | 51000 pM |
| COc1cccc(OC)c1-n1c(NS(=O)(=O)[C@H]2C[C@@H](C(=O)N3CCC3)CN(c3ncc(F)cn3)C2)nnc1-c1ccc(C)o1 (mixture of isomers) | 350 pM |
| COc1cccc(OC)c1-n1c(NS(=O)(=O)[C@@H](C)Cc2ncc(F)cc2N2C[C@H](O)CC2=O)nnc1-c1ccco1 (mixture of isomers) | 610 pM |
| COc1cnc([C@@H](O)[C@H](C)S(=O)(=O)Nc2nnc(-c3ccc(C)o3)n2-c2c(OC)cccc2OC)cn1 (mixture of isomers) | 250 pM |
| COc1cccc(OC)c1-n1c(NS(=O)(=O)[C@H]2CCCN(c3ncc(F)cn3)C2)nnc1-c1ccc(C)o1 (single isomer, unassigned) | 3200 pM |
| COc1cc[nH]c(=O)c1-n1c(NS(=O)(=O)[C@@H](C)[C@H](C)c2ncc(C)cn2)nnc1-c1ccc(C)o1 (single isomer, unassigned; form 1) | 750 pM |
| COc1cccc(OC)c1-n1c(NS(=O)(=O)C[C@@](C)(O)c2ncc(C#N)cn2)nnc1-c1ccc(C)o1 (mixture of isomers) | 650 pM |
| COc1cccc(OC)c1-n1c(NS(=O)(=O)[C@@H](C)[C@@H](O)c2ncn3ccccc23)nnc1-c1ccc(C)o1 (single isomer, unassigned) | 1400 pM |
| COc1ncnc(OC)c1-n1c(NS(=O)(=O)[C@@H](C)Cc2ncc(F)cn2)nnc1-c1ccc(C)o1 (mixture of isomers) | 3000 pM |
| COC[C@H]1CCCC(=O)N1C[C@@H](C)S(=O)(=O)Nc1nnc(-c2ccc(C)o2)n1-c1c(OC)cccc1OC (single isomer, unassigned) | 480 pM |
| COc1cccc(OC)c1-n1c(NS(=O)(=O)[C@H](C)[C@H](O)c2cscn2)nnc1-c1ccc(C)o1 (mixture of isomers) | 16000 pM |
| COc1cccc(OC)c1-n1c(NS(=O)(=O)CCN2C(=O)N(C)CC[C@H]2C)nnc1-c1ccco1 (single isomer, unassigned) | 700 pM |
| COc1cccc(OC)c1-n1c(NS(=O)(=O)[C@H](C)Cc2ncc(F)cc2NC(C)=O)nnc1-c1ccco1 (single isomer, unassigned) | 210 pM |
| COc1cccc(OC)c1-n1c(NS(=O)(=O)[C@@H]2C[C@@H](c3ccc(F)cc3)CN(C(C)=O)C2)nnc1-c1ccc(C)o1 (single isomer, unassigned) | 750 pM |

| Structure (SMILES) | EC50 |
| --- | --- |
| COc1cccc(OC)c1-n1c(NS(=O)(=O)[C@@H](C)[C@@H](O)c2ncc(F)cn2)nnc1-c1ccc(C)o1 (single isomer, unassigned) | 320 pM |
| COc1cccc(OC)c1-n1c(NS(=O)(=O)CCc2ncc(Cl)cc2C2=CCN(C(C)=O)CC2)nnc1-c1ccco1 | 320 pM |
| COc1cccc(OC)c1-n1c(NS(=O)(=O)[C@H](C)[C@@H](O)c2cc3ccccn3n2)nnc1-c1ccc(C)o1 (mixture of isomers) | 650 pM |
| COc1cccc(OC)c1-n1c(NS(=O)(=O)[C@@H](C)[C@@H](O)c2cccc3ccnn23)nnc1-c1ccc(C)o1 | 790 pM and 870 pM |
| COc1cccc(OC)c1-n1c(NS(=O)(=O)[C@@H]2CCCC[C@H]2c2ncc(F)cn2)nnc1-c1ccco1 (single isomer, unassigned) | 30000 pM |
| CCc1ccc(-c2nnc(NS(=O)(=O)[C@@H](C)Cc3ncc(F)cn3)n2-c2c(OC)cccc2OC)o1 (mixture of isomers) | 130 pM |
| COc1cccc(OC)c1-n1c(NS(=O)(=O)[C@@H](C)[C@H](O)c2cc3ccccn3n2)nnc1-c1ccc(C)o1 (single isomer, unassigned) | 3700 pM |
| COCn1cnc2c(C[C@H](C)S(=O)(=O)Nc3nnc(-c4ccco4)n3-c3c(OC)cccc3OC)ncc(F)c21 (mixture of isomers) | 770 pM |
| COc1cccc(OC)c1-n1c(NS(=O)(=O)[C@@H](C)[C@@H](OC)c2cn3ccccc3n2)nnc1-c1ccc(C)o1 (mixture of isomers) | 960 pM |
| COc1cccc(OC)c1-n1c(NS(=O)(=O)[C@H]2COC[C@@H]2c2ncc(F)cn2)nnc1-c1ccco1 (single isomer, unassigned) | 28000 pM |
| COc1cccc(OC)c1-n1c(NS(=O)(=O)[C@@H](C)[C@H](C)c2cnc(C)c[n+]2[O-])nnc1-c1ccc(C)o1 (mixture of isomers) | 140 pM |
| COc1cccc(OC)c1-n1c(NS(=O)(=O)[C@@H]2CCC[C@H]2c2ncc(F)cn2)nnc1-c1ccc(C)o1 (single isomer, unassigned) | 2800 pM |
| COc1cccc(OC)c1-n1c(NS(=O)(=O)[C@H](C)[C@](C)(O)c2ncc(F)cn2)nnc1-c1ccc(C)o1 (single isomer, unassigned) | 570 pM |
| COc1cc[nH]c(=O)c1-n1c(NS(=O)(=O)[C@@H](C)[C@H](C)c2ncc(C)cn2)nnc1-c1ccc(C)o1 (single isomer, unassigned; form 2) | 37000 pM |
| COc1cccc(OC)c1-n1c(NS(=O)(=O)[C@@H](C)[C@@H](O)c2cnc3ccccn23)nnc1-c1ccc(C)o1 (single isomer, unassigned) | 960 pM |
| COc1cccc(OC)c1-n1c(NS(=O)(=O)[C@@H](C)[C@@H](O)c2cn3ccccc3n2)nnc1-c1ccc(C)o1 (single isomer, unassigned) | 1000 pM |
